Results: PubChem BioAssay AID1963983 (Molecular Pharmacology Branch, DTP, NCI, 2024)
Where “and” joins values, the source holds several entries; their conditions need not be identical. Identical values can stand only once. Values belong to the molecule of their own block, whether it stands above or below them.

Tested on: 186277-243-T-J2-PDC multi-cell spheroid viability
Assay: Anticancer human tumor 186277-243-T-J2-PDC patient-derived colon adenocarcinoma cell line growth inhibition [PI3K]
Conditions: for viability, T/C: stronger effect = lower value
Text: Combinatorial screen of targeted agents with the PI3K inhibitors inavolisib, alpelisib, duvelisib, and copanlisib in multi-cell type tumor spheroids
A high-throughput screen of multi-cell type tumor spheroids was designed to identify active combinations of targeted small molecules and PI3K pathway inhibitors. Complex spheroids include a stromal component modeled by human endothelial cells (HUVEC) and fibroblasts modeled by human mesenchymal stem cells (MSCs). The concentration ranges selected for each drug and investigational agent were based upon clinically achievable concentrations if the clinical Cmax of the agent was known.
Compounds. The drugs and investigational agents: inavolisib (NSC800729), alpelisib (NSC765974), duvelisib (NSC772469), copanlisib (NSC816437), ipatasertib (NSC767898), afuresertib (NSC778305), talazoparib (NSC767125), sapanisertib (NSC764658), selumetinib (NSC741078), tovorafenib (DAY101, NSC766906), vemurafenib (NSC761431), ravoxertinib (NSC781343), sotorasib (NSC818433), MRTX1133 (NSC 836407), abemaciclib (NSC 768073), palbociclib (NSC758247), venetoclax (NSC 766270), SY5609 (NSC837396), enzalutamide (NSC755605), and darolutamide (NSC825331), were obtained from the National Cancer Institute (NCI) Developmental Therapeutics Program Chemical Repository. The FDA-approved anticancer drug set is available from the NCI Developmental Therapeutics Program. […] The stock solutions were prepared in dimethyl sulfoxide (DMSO, Sigma-Aldrich, St. Louis, MO, cat. D2650) at 800-fold the tested concentration and stored at -70 degrees C prior to their use. All drugs and investigational agents were tested over a range starting from a high concentration at or near the clinical Cmax and decreasing in half-log increments. If the clinical Cmax for an agent had not been determined, the highest concentration tested was 10 microM.
Cell Culture. All cells were maintained in an incubator at 37 degrees C and 5% CO2 with 95% humidity. The PDC lines were cultured according to standard operating procedures established by the NCI PDMR (https://pdmr.cancer.gov/sops/default.htm). All PDCs were thawed and cultured in Matrigel-coated flasks prepared with a working solution of 1X Ham's F-12 nutrient mix, without supplementation (Invitrogen, Waltham, MA, cat. 11765054), 100 U/mL penicillin-streptomycin (Invitrogen, cat. 15140122), and 2.5% Matrigel (Corning Inc., Corning, NY, cat. 354248) for the first three passages. The 354836-022-R-J1-PDC, 475296-252-R-J1-PDC, and 997726-040-R-J2-PDC lines were cultured in 6A media, which includes advanced DMEM/F-12 (Thermo Fisher Scientific, cat. 12634028), 10 mM HEPES (Thermo Fisher Scientific, cat. 15630080), 1X GlutaMAX supplement (Thermo Fisher Scientific, cat. 35050061), 0.1 mg/mL primocin (InvivoGen, San Diego, CA, cat. ant-pm-2), 10% defined fetal bovine serum, heat inactivated (HyClone Laboratories Inc., Logan, UT, cat. SH30070.03HI), 50% L-WRN conditioned media (ATCC, cat. CRL-3276), 1.25 mM N-Acetyl-L-cysteine (Sigma-Aldrich, cat. A9165), 10 mM nicotinamide (Sigma-Aldrich, cat. N0636), 1X B-27 supplement (Thermo Fisher Scientific, cat. 17504044), 1X N-2 supplement (Thermo Fisher Scientific, cat. 17502048), and 10 microM Y-27632 dihydrochloride (Tocris Bioscience, Bristol, United Kingdom, cat. 1254). The 624824-186-R-J2-PDC line was cultured in 6C/Colon 1B media, which includes all 6A media components plus 50 ng/mL human EGF recombinant protein (Thermo Fisher Scientific, cat. PHG0311). […]

[1] = curve of first compound, second compound 0.0316 µM
[2] = curve of first compound, second compound 0.1 µM
[3] = curve of first compound, second compound 0.316 µM
[4] = curve of first compound, second compound 1 µM
[5] = second compound 0.0316 µM, first compound 0.0316 µM
[6] = second compound 0.0316 µM, first compound 0.1 µM
[7] = second compound 0.0316 µM, first compound 0.316 µM
[8] = second compound 0.0316 µM, first compound 1 µM
[9] = second compound 0.0316 µM, first compound 3.16 µM
[10] = second compound 0.0316 µM, first compound 10 µM
[11] = second compound 0.1 µM, first compound 0.0316 µM
[12] = second compound 0.1 µM, first compound 0.1 µM
[13] = second compound 0.1 µM, first compound 0.316 µM
[14] = second compound 0.1 µM, first compound 1 µM
[15] = second compound 0.1 µM, first compound 3.16 µM
[16] = second compound 0.1 µM, first compound 10 µM
[17] = second compound 0.316 µM, first compound 0.0316 µM
[18] = second compound 0.316 µM, first compound 0.1 µM
[19] = second compound 0.316 µM, first compound 0.316 µM
[20] = second compound 0.316 µM, first compound 1 µM
[21] = second compound 0.316 µM, first compound 3.16 µM
[22] = second compound 0.316 µM, first compound 10 µM
[23] = second compound 1 µM, first compound 0.0316 µM
[24] = second compound 1 µM, first compound 0.1 µM
[25] = second compound 1 µM, first compound 0.316 µM
[26] = second compound 1 µM, first compound 1 µM
[27] = second compound 1 µM, first compound 3.16 µM
[28] = second compound 1 µM, first compound 10 µM
[29] = curve of first compound, second compound 3.16 µM
[30] = curve of first compound, second compound 10 µM
[31] = second compound 3.16 µM, first compound 0.0316 µM
[32] = second compound 3.16 µM, first compound 0.1 µM
[33] = second compound 3.16 µM, first compound 0.316 µM
[34] = second compound 3.16 µM, first compound 1 µM
[35] = second compound 3.16 µM, first compound 3.16 µM
[36] = second compound 3.16 µM, first compound 10 µM
[37] = second compound 10 µM, first compound 0.0316 µM
[38] = second compound 10 µM, first compound 0.1 µM
[39] = second compound 10 µM, first compound 0.316 µM
[40] = second compound 10 µM, first compound 1 µM
[41] = second compound 10 µM, first compound 3.16 µM
[42] = second compound 10 µM, first compound 10 µM
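Also: spheroids exposed to compounds for seven days before viability reading.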
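For viability, T/C in this document: 100% = DMSO vehicle control viability.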

IC50 (curve of first compound, second compound 0.00316 µM): 3.6 µM
IC50 (curve of first compound, second compound 0.01 µM): 3.86 µM
IC50 [1]: 3.52 µM
IC50 [2]: 1.65 µM
IC50 [3]: 0.0569 µM
IC50 [4]: < 0.0316 µM
Compound: CC1(C)CCC(Nc2ncc(C(F)(F)F)c(-c3c[nH]c4c(P(C)(C)=O)c(C#N)ccc34)n2)CN1 (stereo not drawn) + CC(Nc1ccc2c(c1)OCCn1cc(N3C(=O)OCC3C(F)F)nc1-2)C(N)=O
viability, T/C (second compound 0.00316 µM, first compound 0.0316 µM): 71.6%
viability, T/C (second compound 0.00316 µM, first compound 0.1 µM): 45.1%
viability, T/C (second compound 0.00316 µM, first compound 0.316 µM): 52.8%
viability, T/C (second compound 0.00316 µM, first compound 1 µM): 56.5%
viability, T/C (second compound 0.00316 µM, first compound 3.16 µM): 56.6%
viability, T/C (second compound 0.00316 µM, first compound 10 µM): 1.03%
viability, T/C (second compound 0.01 µM, first compound 0.0316 µM): 69.1%
viability, T/C (second compound 0.01 µM, first compound 0.1 µM): 52.9%
viability, T/C (second compound 0.01 µM, first compound 0.316 µM): 55%
viability, T/C (second compound 0.01 µM, first compound 1 µM): 58.9%
viability, T/C (second compound 0.01 µM, first compound 3.16 µM): 66.3%
viability, T/C (second compound 0.01 µM, first compound 10 µM): 0.23%
viability, T/C [5]: 78%
viability, T/C [6]: 54.3%
viability, T/C [7]: 51.7%
viability, T/C [8]: 57.8%
viability, T/C [9]: 55.3%
viability, T/C [10]: 0.17%
viability, T/C [11]: 72.7%
viability, T/C [12]: 54.3%
viability, T/C [13]: 60.4%
viability, T/C [14]: 55.6%
viability, T/C [15]: 43.6%
viability, T/C [16]: 0.46%
viability, T/C [17]: 54.2%
viability, T/C [18]: 49.7%
viability, T/C [19]: 33.4%
viability, T/C [20]: 41%
viability, T/C [21]: 22.6%
viability, T/C [22]: 0.44%
viability, T/C [23]: 34.5%
viability, T/C [24]: 29.1%
viability, T/C [25]: 22.6%
viability, T/C [26]: 26.4%
viability, T/C [27]: 12.2%
viability, T/C [28]: 1.38%

IC50 [1]: 5.42 µM
IC50 [2]: 5.41 µM
IC50 [3]: 4.75 µM
IC50 [4]: 4.85 µM
IC50 [29]: 4.26 µM
IC50 [30]: < 0.0316 µM
Compound: CCCS(=O)(=O)Nc1ccc(F)c(C(=O)c2c[nH]c3ncc(-c4ccc(Cl)cc4)cc23)c1F + Cc1nc(NC(=O)N2CCCC2C(N)=O)sc1-c1ccnc(C(C)(C)C(F)(F)F)c1
viability, T/C [5]: 88.2%
viability, T/C [6]: 76.7%
viability, T/C [7]: 88.5%
viability, T/C [8]: 89.2%
viability, T/C [9]: 89%
viability, T/C [10]: 8.5%
viability, T/C [11]: 98.1%
viability, T/C [12]: 105%
viability, T/C [13]: 89.6%
viability, T/C [14]: 94.9%
viability, T/C [15]: 87.2%
viability, T/C [16]: 7.3%
viability, T/C [17]: 113%
viability, T/C [18]: 103%
viability, T/C [19]: 89.2%
viability, T/C [20]: 88%
viability, T/C [21]: 78.7%
viability, T/C [22]: 7.15%
viability, T/C [23]: 95.8%
viability, T/C [24]: 104%
viability, T/C [25]: 98.5%
viability, T/C [26]: 91.9%
viability, T/C [27]: 76.5%
viability, T/C [28]: 6.14%
viability, T/C [31]: 67.6%
viability, T/C [32]: 81.6%
viability, T/C [33]: 81.1%
viability, T/C [34]: 82%
viability, T/C [35]: 65.6%
viability, T/C [36]: 5.53%
viability, T/C [37]: 15.2%
viability, T/C [38]: 17.1%
viability, T/C [39]: 26.6%
viability, T/C [40]: 35.3%
viability, T/C [41]: 38.8%
viability, T/C [42]: 2.29%

IC50 (curve of compound): > 10 µM
Compound: CC(Cn1ccc(-c2ccc(C#N)c(Cl)c2)n1)NC(=O)c1cc(C(C)O)[nH]n1 (stereo not drawn)
viability, T/C (compound 0.0316 µM): 95.5% [middle of 4 runs]
viability, T/C (compound 0.1 µM): 99% [middle of 4 runs]
viability, T/C (compound 0.316 µM): 101% [middle of 4 runs]
viability, T/C (compound 1 µM): 102% (2×) and 82% and 108%
viability, T/C (compound 3.16 µM): 96.6% [middle of 4 runs]
viability, T/C (compound 10 µM): 97.3% [middle of 4 runs]

IC50 [1]: 1.5 µM
IC50 [2]: 1.33 µM
IC50 [3]: 1.08 µM
IC50 [4]: 0.516 µM
IC50 [29]: 0.304 µM
IC50 [30]: 0.182 µM
Compound: Cn1ncc(Cl)c1-c1cc(C(=O)NC(CN)Cc2cccc(F)c2)sc1Cl (stereo not drawn) + CC(Nc1ncnc2nc[nH]c12)c1cc2cccc(Cl)c2c(=O)n1-c1ccccc1
viability, T/C [5]: 82.5%
viability, T/C [6]: 83.6%
viability, T/C [7]: 55.5%
viability, T/C [8]: 56.8%
viability, T/C [9]: 46.1%
viability, T/C [10]: 15.4%
viability, T/C [11]: 84.1%
viability, T/C [12]: 90.4%
viability, T/C [13]: 54.2%
viability, T/C [14]: 56.1%
viability, T/C [15]: 44.3%
viability, T/C [16]: 17.5%
viability, T/C [17]: 99.9%
viability, T/C [18]: 86.9%
viability, T/C [19]: 60.9%
viability, T/C [20]: 48.8%
viability, T/C [21]: 44.6%
viability, T/C [22]: 16.1%
viability, T/C [23]: 97.4%
viability, T/C [24]: 78.3%
viability, T/C [25]: 48%
viability, T/C [26]: 43.1%
viability, T/C [27]: 37.1%
viability, T/C [28]: 13.1%
viability, T/C [31]: 83.8%
viability, T/C [32]: 70.6%
viability, T/C [33]: 45%
viability, T/C [34]: 31.8%
viability, T/C [35]: 25.6%
viability, T/C [36]: 5.44%
viability, T/C [37]: 85.1%
viability, T/C [38]: 60.3%
viability, T/C [39]: 39.3%
viability, T/C [40]: 25%
viability, T/C [41]: 18.7%
viability, T/C [42]: 3.49%
